Reference: patent US20020081266A1, “Spray dried powders for pulmonary or nasal administration” (Norton Healthcare Ltd., priority 1999, published 2002)

Legend:
[1] = Scanning electron microscopy (SEM) particle diameter; type: physicochemical; settings: for Particle diameters by SEM: spray dried from ethanolic solution
Description: Scanning Electron Microscopy (SEM)
The scanning electron microscope used was the Hitachi S-3500N variable pressure scanning electron microscope. Samples were mounted and sputtered with gold spray for SEM.
The scanning electron microscope used was the Hitachi S-3500N variable pressure scanning electron microscope. Samples were mounted on aluminium stubs and spluttered with gold spray for SEM.

[2] = starting material
Description: Thermogravimetric Analysis (TGA)
Thermogravimetric analysis was carried out using a Mettler TG 50 linked to a Mettler MT5 balance. Data was processed using Mettler Toledo STAR software Version 5.1 with a Solaris operating system. Sample weights were between 5 and 10 mg and analysis was carried out under nitrogen purge. The scans were run from 30 to 350° C. at a heating rate of 10° C./minute. Two TGA scans were obtained for each system.

Compound | Average particle diameter by SEM ([1]; starting material, not spray dried) | Temperature from which TGA mass loss due to degradation occurs [2] [°C] | Particle diameters by SEM [1] [μm]
COc1ccc(C[C@@H](C)NC[C@H](O)c2ccc(O)c(NC=O)c2)cc1.COc1ccc(C[C@@H](C)NC[C@H](O)c2ccc(O)c(NC=O)c2)cc1.O=C(O)/C=C/C(=O)O [Formoterol fumarate, formoterol fumarate] | 0.5-5 μm | ≥ 150 | –
CC(C)[N+]1(C)[C@@H]2CC[C@H]1CC(OC(=O)C(CO)c1ccccc1)C2.[Br-] (stereo partly shown) [Ipratropium bromide, ipratropium bromide] | – | – | ≥ 60
salbutamol sulphate | – | – | < 3
